From patent publication US20240360179A1, “STAPLED PEPTIDES AND METHODS THEREOF” (FOG PHARMACEUTICALS, INC., priority 2021, published 2024)
Where two headings read alike, the source gives them in different places.

Experiments:
[1] = molecular target: T1, beta-catenin/TCF4 interaction (Homo sapiens, UniProt P35222); format: cell-based; conditions: read-out: NanoBRET Abs IC50
T1 construct: host or cells: HEK293
T1 sequence (P35222 1-781): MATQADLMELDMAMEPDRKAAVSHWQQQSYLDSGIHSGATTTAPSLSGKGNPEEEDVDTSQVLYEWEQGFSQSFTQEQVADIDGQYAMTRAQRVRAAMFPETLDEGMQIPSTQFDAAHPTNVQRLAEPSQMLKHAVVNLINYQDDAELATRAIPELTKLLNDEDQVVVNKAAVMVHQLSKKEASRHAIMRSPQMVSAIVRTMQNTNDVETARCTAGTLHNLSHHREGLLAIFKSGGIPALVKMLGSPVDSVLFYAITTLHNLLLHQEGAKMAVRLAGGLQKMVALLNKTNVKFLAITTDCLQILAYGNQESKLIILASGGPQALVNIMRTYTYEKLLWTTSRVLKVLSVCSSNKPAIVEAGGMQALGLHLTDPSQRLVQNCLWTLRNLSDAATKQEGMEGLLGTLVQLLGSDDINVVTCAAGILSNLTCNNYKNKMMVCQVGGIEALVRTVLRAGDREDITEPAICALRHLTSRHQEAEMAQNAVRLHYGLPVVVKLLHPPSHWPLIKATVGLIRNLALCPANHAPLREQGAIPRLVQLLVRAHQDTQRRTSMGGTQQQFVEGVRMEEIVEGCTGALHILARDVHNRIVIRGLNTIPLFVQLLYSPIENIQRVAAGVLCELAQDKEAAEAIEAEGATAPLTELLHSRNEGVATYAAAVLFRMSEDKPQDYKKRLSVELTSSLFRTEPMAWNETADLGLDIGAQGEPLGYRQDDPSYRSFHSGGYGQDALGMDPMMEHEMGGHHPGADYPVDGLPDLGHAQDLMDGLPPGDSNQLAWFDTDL

[2] = test system: beta-catenin driven transcription in HAP1 WT cells; test: qPCR of beta-catenin driven transcription in HAP1 WT cells (CHIR treated); format: cell-based; conditions: 24-hour treatment
[3] = test system: HAP1 CTNNB1 knockout cells; test: qPCR in HAP1 beta-catenin KO cells; format: cell-based
[4] = molecular target: T2, TCF/LEF luciferase reporter in DLD1 cells (Homo sapiens, UniProt P35222); test: TCF reporter assay in DLD1 cells (4% or 20% FBS); format: cell-based
T2 sequence (P35222 2-781): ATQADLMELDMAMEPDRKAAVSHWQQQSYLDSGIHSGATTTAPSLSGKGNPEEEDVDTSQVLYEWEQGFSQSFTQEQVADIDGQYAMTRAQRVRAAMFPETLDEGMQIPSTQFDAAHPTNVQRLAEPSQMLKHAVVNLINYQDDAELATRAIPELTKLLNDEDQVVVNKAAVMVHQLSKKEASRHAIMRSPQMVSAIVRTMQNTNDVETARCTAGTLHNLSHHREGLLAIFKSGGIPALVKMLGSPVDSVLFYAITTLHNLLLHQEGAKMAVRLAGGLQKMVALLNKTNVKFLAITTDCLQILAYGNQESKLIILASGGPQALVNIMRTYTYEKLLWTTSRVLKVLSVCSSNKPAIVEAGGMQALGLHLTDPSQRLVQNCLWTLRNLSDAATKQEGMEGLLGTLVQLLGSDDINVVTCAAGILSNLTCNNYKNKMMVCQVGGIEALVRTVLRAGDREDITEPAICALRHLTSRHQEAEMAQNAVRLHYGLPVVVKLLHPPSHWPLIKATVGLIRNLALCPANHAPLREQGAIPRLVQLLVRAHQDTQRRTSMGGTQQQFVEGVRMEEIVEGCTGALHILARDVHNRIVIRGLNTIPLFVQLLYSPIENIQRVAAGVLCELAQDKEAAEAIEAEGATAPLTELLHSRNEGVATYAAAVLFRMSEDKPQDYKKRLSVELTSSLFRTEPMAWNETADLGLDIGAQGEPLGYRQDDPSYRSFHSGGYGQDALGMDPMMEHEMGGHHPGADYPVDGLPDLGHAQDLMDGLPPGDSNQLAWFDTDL

[5] = molecular target: T3, full-length B-Catenin (Uniprot ID P35222) (Homo sapiens, UniProt P35222); format: binding
T3 construct: 10 nM full-length B-Catenin (Uniprot ID P35222)
T3 sequence (P35222 1-781): T1 sequence (P35222 1-781)

COLO320DM cells = test: COLO320DM proliferation assay (CellTiter-Glo); format: cell-based, human; conditions: read-out: COLO320DM Proliferation Abs IC50
Method in brief: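 COLO320DM cells, 250 cells/well in RPMI-1640 with 4% FBS, attached 18-22 h, then exposed 96 h at 37 °C, 5% CO2 to 7-point 1/2 dilutions from 20 uM to 313 nM. Viability by CellTiter-Glo luminescence; IC50 derived from the dose curve.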

[6] = read-out: DLD1 4% Abs IC50, DLD1 TCF reporter, 4% FBS
[7] = read-out: DLD1 4% Abs IC50, DLD1 TCF reporter, 4% FBS, absolute IC50
[8] = read-out: beta-catenin TCF4 competition FP assay IC50
[9] = read-out: beta-catenin TCF4 DLD1 cell reporter assay IC50

Molecule: 5hexenyl-MePro-Asp-AllylGly-R5-Asp-3COOHF-Aib-Ala-Phe-Lys*3-PyrS2-3Thi-BztA-GlnR*3-Ala-NH2 [I-430]
- IC50 [1]: > 10000 nM

Molecule: Cc1c[nH]c(-c2cnc(NCCNc3ccc(C#N)cn3)nc2-c2ccc(Cl)cc2Cl)n1 [CHIR, CHIR99021, reference compound]
- beta-catenin protein levels [2]: more than two-fold
- expression of AXIN2, SP5, or RNF43 [3]: neither CHIR nor peptide A and I-66 affected

Molecule: Ac-PL3-Asp-Cha-B5-Asp-3COOHF-Ala-Ala-Phe-Lys*3-PyrS2-2F3MeF-BztA-GlnR*3-Leu-NH2 [I-106]
- IC50 [4, 6]: ≤ 1000 nM

Molecule: Ac-PL3-Asp-Npg-B5-Asp-3COOHF-Aib-Ala-Phe-Lys*3-PyrS2-2F3MeF-BztA-GlnR*3-Ala-NH2 [I-69]
- IC50 ([5]; read-out: beta-Catenin FP IC50): < 50 nM
- IC50 [4, 6]: ≤ 1000 nM
- IC50 (COLO320DM cells): ≤ 10000 nM

Molecule: Ac-PL3-Asp-Npg-B5-Asp-3COOHF-Aib-Ala-Phe-Lys*3-PyrS2-2F3MeF-BztA-GlnR*3-Leu-Ser-NH2 [I-138]
- IC50 [4, 6]: ≤ 1000 nM
- IC50 (COLO320DM cells): ≤ 10000 nM

Molecule: Ac-PL3-Asp-Npg-B5-Asp-3COOHF-Aib-Ala-Phe-Lys*3-PyrS2-3Thi-BztA-GlnR*3-Glu-Ala-NH2 [I-342]
- IC50 [4, 7]: ≤ 1000 nM

Molecule: Ac-PL3-Asp-Npg-B5-Asp-3COOHF-Aib-Ala-Phe-TriAzLys*3-PyrS2-3Thi-BztA-sCH2S*3-Ala-NH2 [I-262]
- IC50 [4, 6]: ≤ 1000 nM
- IC50 (COLO320DM cells): ≤ 10000 nM

Molecule: Ac-PL3-Asp-Npg-B5-Asp-3COOHF-Aib-Ala-Phe-[2_6-naph]Cys-PyrS2-3Thi-BztA-Cys-Ala-NH2 [I-566]
- IC50 [5, 8]: 58 nM
- IC50 [4, 9]: > 20000 nM

Molecule: Ac-PL3-Asp-Npg-B5-Asp-3COOHF-Aib-Ala-Phe-[3_3-biph]Cys-PyrS2-3Thi-BztA-Cys-Ala-NH2 [I-567]
- IC50 [5, 8]: 120 nM
- IC50 [4, 9]: > 20000 nM

Molecule: Ac-PL3-Asp-Npg-B5-Asp-3COOHF-Aib-Ala-Phe-sAla*3-PyrS2-3Thi-BztA-TriAzLys*3-Ala-NH2 [I-336]
- IC50 [4, 7]: 1000 to 5000 nM

Molecule: Ac-PL3-Asp-Npg-B5-Asp-3COOHF-Ala-Aib-Phe-Lys*3-PyrS2-3Thi-BztA-GlnR*3-Ala-NH2 [I-442]
- IC50 [1]: > 10000 nM

Molecule: Ac-PL3-Asp-Npg-B5-Asp-3COOHF-Ala-Ala-Phe-Lys*3-PyrS2-3Thi-BztA-GlnR*3-Prool [I-64]
- IC50 [4, 6]: 1000 to 5000 nM
- IC50 (COLO320DM cells): 10000 to 20000 nM

Molecule: Ac-PL3-Asp-Npg-B5-Asp-3COOHF-Ala-Ala-Phe-Lys*3-PyrS2-3Thi-BztA-hGlnR*3-Ala-NH2 [I-183]
- IC50 [4, 6]: 1000 to 5000 nM

Molecule: Ac-PL3-Asp-Npg-B5-Asp-3COOHF-Ala-Ala-Phe-TriAzLys*3-PyrS2-3Thi-BztA-sAla*3-Ala-NH2 [I-337]
- IC50 [4, 7]: ≤ 1000 nM

Molecule: Ac-PL3-Asp-Npg-B5-Asp-3COOHF-Ala-Ala-Phe-iPrLys*3-PyrS2-3Thi-BztA-hGlnR*3-Ala-NH2 [I-187]
- IC50 [4, 6]: > 5000 nM

Molecule: Ac-PL3-Asp-Npg-B5-Asp-3COOHF-Ala-Ala-Phe-sAla*3-PyrS2-3Thi-BztA-TriAzLys*3-Ala-NH2 [I-338]
- IC50 [4, 7]: ≤ 1000 nM

Molecule: Ac-PL3-Asp-Npg-B5-Asp-3COOHF-Ala-Ala-Phe-sAla*3-PyrS2-3Thi-BztA-TriAzLys*3-NH2 [I-24]
- IC50 [4, 6]: 1000 to 5000 nM

Molecule: Ac-PL3-Asp-Npg-B5-Asp-3COOHF-Cbg-Ala-Phe-Lys*3-PyrS2-2F3MeF-BztA-GlnR*3-Leu-Ser-NH2 [I-140]
- IC50 [4, 6]: ≤ 1000 nM

Molecule: Ac-PL3-Asp-Npg-B5-Asp-3COOHF-Cpg-Ala-Phe-Lys*3-PyrS2-2F3MeF-BztA-GlnR*3-Leu-Ser-NH2 [I-139]
- IC50 [4, 6]: ≤ 1000 nM

Molecule: Ac-PL3-Asp-Npg-B5-Asp-3COOHF-CyLeu-Ala-Phe-Lys*3-PyrS2-2F3MeF-BztA-GlnR*3-Leu-Ser-NH2 [I-141]
- IC50 [4, 6]: ≤ 1000 nM

Molecule: Ac-PL3-Asp-Npg-B5-Asp-3COOHF-Npg-Ala-Phe-Lys*3-PyrS2-2F3MeF-BztA-GlnR*3-Ala-NH2 [I-99]
- IC50 [4, 6]: ≤ 1000 nM

Molecule: Ac-PL3-Asp-Npg-B5-Asp-3COOHF-Npg-Ala-Phe-Lys*3-PyrS2-2F3MeF-BztA-GlnR*3-Leu-NH2 [I-109]
- IC50 [1]: > 10000 nM
- IC50 [4, 6]: 1000 to 5000 nM

Molecule: Ac-PL3-Asp-Npg-B5-Asp-3COOHF-nLeu-Ala-Phe-Lys*3-PyrS2-3Thi-BztA-GlnR*3-Ala-NH2 [I-70]
- IC50 [4, 6]: ≤ 1000 nM
- IC50 (COLO320DM cells): ≤ 10000 nM

Molecule: Ac-PL3-Asp-Npg-B5-Asp-TfeGA-Ala-Ala-Phe-Lys*3-PyrS2-2F3MeF-BztA-GlnR*3-Leu-NH2 [I-128]
- IC50 [4, 6]: 1000 to 5000 nM

Molecule: Ac-PL3-Asp-Npg-B5-Asp-TfeGA-Ala-Ala-Phe-Lys*3-PyrS2-2F3MeF-BztA-GlnR*3-Val-NH2 [I-129]
- IC50 [4, 6]: 1000 to 5000 nM

Molecule: Ac-PL3-Glu-Npg-B5-Glu-3COOHF-Aib-Ala-Phe-Lys*3-PyrS2-2F3MeF-BztA-GlnR*3-Ala-NH2 [I-291]
- IC50 [4, 6]: 1000 to 5000 nM

Molecule: Ac-PL3-aThr-Npg-B5-Asp-3COOHF-Aib-Ala-Phe-Lys*3-PyrS2-3Thi-BztA-GlnR*3-Ala-NH2 [I-163]
- IC50 [4, 6]: > 5000 nM
